Ten compounds from ChEMBL document CHEMBL1123976, “Synthesis and pharmacological characterization of 1-phenyl-, 4-phenyl-, and 1-benzyl-1,2,3,4-tetrahydroisoquinolines as dopamine receptor ligands” (J Med Chem, 1988) can be followed below.

SMILES strings stand for the structures.

The target of one test is D(2) dopamine receptor (Rattus norvegicus, UniProt P61169).
Another test concerns the target D(1A) dopamine receptor (Rattus norvegicus, UniProt P18901).
Test [1] can be described thus: Inhibition of Dopamine-stimulated adenylate cyclase obtained from rat corpus striatum was determined by the conversion of [32P]ATP to [32P]-cAMP.

Sequence of D(1A) dopamine receptor (P18901 whole entry): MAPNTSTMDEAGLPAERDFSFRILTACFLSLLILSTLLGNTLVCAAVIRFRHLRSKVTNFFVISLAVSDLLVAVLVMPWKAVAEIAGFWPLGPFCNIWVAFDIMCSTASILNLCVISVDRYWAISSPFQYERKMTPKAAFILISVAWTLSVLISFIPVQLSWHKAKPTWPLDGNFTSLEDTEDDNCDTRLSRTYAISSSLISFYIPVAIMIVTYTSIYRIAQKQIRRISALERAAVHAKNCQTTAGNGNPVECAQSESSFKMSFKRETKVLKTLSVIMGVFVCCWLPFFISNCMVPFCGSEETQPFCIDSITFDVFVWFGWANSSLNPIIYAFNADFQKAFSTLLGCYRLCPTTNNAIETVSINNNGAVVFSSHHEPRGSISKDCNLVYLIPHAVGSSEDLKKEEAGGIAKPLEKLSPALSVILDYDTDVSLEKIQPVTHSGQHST
Sequence of D(2) dopamine receptor (P61169 whole entry): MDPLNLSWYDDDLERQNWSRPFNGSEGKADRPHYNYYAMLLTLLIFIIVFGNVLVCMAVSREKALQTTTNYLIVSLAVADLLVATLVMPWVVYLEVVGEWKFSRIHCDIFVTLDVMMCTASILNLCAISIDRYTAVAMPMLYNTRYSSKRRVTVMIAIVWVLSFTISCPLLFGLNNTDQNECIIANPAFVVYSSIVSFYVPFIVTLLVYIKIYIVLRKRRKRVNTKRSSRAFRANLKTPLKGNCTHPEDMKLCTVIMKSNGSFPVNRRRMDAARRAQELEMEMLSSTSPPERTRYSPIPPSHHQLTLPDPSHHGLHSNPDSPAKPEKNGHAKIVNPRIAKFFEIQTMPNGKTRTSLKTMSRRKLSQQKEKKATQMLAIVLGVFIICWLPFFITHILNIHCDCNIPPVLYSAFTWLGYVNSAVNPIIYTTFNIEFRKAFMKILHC
Description for D(2) dopamine receptor: Inhibition of [3H]spiperone binding to Dopamine receptor D2 at 0.02 nM

What is called Ki is a measure of affinity in units of concentration, obtained from inhibition or displacement. Take `CN1CCc2cc(Cl)c(O)cc2[C@H]1c1ccccc1`: the Ki is 19200 nM at D(2) dopamine receptor and 442 nM at D(1A) dopamine receptor.
Take `CCCN1CCc2cc(Cl)c(O)cc2[C@@H]1c1ccccc1`: the inhibition constant (Ki) turned out to be 1900 nM at D(2) dopamine receptor and 179 nM on D(1A) dopamine receptor.
Turning to `CN1CCc2cc(Cl)c(O)cc2[C@@H]1c1ccccc1`, the inhibition constant Ki at D(2) dopamine receptor came out at 1850 nM; at D(1A) dopamine receptor it was 6.6 nM.
For the compound `CN1CCc2cc(Cl)c(O)cc2C1Cc1ccccc1` (racemic), the Ki at D(2) dopamine receptor worked out at 287 nM; at D(1A) dopamine receptor, 53.2 nM.
With `Oc1cc2c(cc1Cl)CNCC2c1ccccc1` (racemic), the figures for the Ki at D(2) dopamine receptor and on D(1A) dopamine receptor were 3620 nM and 565 nM, respectively.
On to `CN1Cc2cc(Cl)c(O)cc2C(c2ccccc2)C1` (racemic), for which the Ki worked out at 522 nM at D(2) dopamine receptor and 174 nM at D(1A) dopamine receptor.
The like results for `Oc1cc2c(cc1Cl)CCNCC2c1ccccc1` (stereo unspecified) were, in that order, 676 nM and 2.35 nM.
Regarding `Oc1cc2c(cc1Cl)CCN[C@H]2c1ccccc1`, the Ki is 3750 nM on D(2) dopamine receptor and 140 nM on D(1A) dopamine receptor.
In the case of `CN1CCc2cc(Cl)c(O)cc2C1c1ccccc1` (racemic), the Ki was 915 nM at D(2) dopamine receptor, 12.5 nM at D(1A) dopamine receptor and 8.98 nM in test [1].
Consider `Oc1cc2c(cc1Cl)CCN[C@@H]2c1ccccc1`, for which the values for the Ki on D(2) dopamine receptor and on D(1A) dopamine receptor were 26300 nM and 743 nM, respectively.
